# Laboratory results published in ChEMBL document CHEMBL5291721, “A preclinical secondary pharmacology resource illuminates target-adverse drug reaction associations of marketed drugs” (Nat Commun, 2023).
# Columns and labels:
# [1] = molecular target: T1, 5-hydroxytryptamine receptor 2C (Homo sapiens, UniProt P28335)
# T1 sequence (P28335 whole entry): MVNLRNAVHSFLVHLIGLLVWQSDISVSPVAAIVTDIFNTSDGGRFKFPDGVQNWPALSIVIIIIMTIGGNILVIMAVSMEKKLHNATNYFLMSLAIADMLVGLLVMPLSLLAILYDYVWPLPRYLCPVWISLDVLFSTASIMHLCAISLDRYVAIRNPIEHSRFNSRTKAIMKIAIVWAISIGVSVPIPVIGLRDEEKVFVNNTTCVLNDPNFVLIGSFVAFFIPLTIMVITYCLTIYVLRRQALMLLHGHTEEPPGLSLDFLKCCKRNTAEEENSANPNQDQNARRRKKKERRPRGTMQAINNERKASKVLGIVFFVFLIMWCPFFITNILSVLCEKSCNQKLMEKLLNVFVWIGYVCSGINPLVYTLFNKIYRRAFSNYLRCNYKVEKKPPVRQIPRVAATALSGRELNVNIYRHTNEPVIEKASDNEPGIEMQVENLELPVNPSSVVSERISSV
# Cannabinoid receptor 1 = Cannabinoid receptor 1 (Homo sapiens, UniProt P21554); assay type: functional, cell-based
# Chain of Cannabinoid receptor 1 (P21554 whole entry): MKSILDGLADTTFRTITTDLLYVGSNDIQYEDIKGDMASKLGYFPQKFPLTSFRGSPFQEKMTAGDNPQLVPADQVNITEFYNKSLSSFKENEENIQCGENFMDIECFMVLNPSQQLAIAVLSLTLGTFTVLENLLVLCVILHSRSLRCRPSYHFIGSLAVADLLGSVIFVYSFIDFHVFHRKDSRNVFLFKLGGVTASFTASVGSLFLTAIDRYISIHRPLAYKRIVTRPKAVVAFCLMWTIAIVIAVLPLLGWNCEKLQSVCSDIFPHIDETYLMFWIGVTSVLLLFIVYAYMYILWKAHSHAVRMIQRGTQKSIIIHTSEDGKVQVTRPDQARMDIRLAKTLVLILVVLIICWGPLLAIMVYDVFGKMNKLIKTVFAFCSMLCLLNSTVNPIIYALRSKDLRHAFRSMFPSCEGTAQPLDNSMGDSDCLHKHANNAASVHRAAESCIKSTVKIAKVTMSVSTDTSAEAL
# Endothelin-1 receptor = molecular target: T2, Endothelin-1 receptor (Homo sapiens, UniProt P25101)
# T2 sequence (P25101 whole entry): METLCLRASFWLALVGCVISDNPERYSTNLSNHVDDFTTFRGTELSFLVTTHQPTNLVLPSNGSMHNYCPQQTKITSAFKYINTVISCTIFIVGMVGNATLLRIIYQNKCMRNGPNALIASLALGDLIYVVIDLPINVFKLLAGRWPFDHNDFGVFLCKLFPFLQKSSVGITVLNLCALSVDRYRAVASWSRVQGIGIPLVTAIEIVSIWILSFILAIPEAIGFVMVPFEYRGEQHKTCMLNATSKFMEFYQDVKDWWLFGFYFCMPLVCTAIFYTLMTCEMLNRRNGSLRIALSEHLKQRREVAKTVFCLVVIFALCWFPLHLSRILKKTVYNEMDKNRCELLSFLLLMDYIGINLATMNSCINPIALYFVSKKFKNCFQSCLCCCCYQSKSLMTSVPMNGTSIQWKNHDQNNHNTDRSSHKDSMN
# [2] = molecular target: Sodium-dependent noradrenaline transporter (Homo sapiens, UniProt P23975)
# Chain of Sodium-dependent noradrenaline transporter (P23975 whole entry): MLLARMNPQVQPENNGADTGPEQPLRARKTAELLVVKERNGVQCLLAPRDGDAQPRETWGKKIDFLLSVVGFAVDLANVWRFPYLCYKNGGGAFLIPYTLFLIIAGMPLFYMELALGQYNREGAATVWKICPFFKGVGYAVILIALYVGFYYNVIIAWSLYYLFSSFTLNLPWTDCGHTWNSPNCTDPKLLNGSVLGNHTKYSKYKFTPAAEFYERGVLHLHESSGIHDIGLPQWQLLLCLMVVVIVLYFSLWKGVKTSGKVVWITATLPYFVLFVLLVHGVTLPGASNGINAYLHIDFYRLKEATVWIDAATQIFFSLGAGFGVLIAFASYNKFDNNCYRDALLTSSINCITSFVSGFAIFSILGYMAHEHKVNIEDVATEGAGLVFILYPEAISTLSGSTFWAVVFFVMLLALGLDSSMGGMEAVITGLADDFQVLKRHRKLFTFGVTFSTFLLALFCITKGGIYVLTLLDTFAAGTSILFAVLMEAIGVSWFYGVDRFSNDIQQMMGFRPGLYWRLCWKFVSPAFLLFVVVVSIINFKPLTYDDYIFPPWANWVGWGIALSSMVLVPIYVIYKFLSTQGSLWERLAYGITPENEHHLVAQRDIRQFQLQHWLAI
# [3] = molecular target: Growth hormone secretagogue receptor type 1 (Homo sapiens, UniProt Q92847)
# Chain of Growth hormone secretagogue receptor type 1 (Q92847 whole entry): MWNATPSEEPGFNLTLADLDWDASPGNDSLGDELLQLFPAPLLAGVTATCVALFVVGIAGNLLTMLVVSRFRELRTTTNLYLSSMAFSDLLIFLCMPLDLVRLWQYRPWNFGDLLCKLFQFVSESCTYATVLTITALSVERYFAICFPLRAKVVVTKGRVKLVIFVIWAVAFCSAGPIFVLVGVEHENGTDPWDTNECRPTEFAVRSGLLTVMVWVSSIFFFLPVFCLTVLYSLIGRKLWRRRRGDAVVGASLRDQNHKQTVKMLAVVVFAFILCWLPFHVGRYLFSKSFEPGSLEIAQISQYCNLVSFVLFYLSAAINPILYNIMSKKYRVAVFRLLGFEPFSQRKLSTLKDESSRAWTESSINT
# [4] = molecular target: T3, 5-hydroxytryptamine receptor 3A (Homo sapiens, UniProt P46098); assay type: functional
# T3 sequence (P46098 whole entry): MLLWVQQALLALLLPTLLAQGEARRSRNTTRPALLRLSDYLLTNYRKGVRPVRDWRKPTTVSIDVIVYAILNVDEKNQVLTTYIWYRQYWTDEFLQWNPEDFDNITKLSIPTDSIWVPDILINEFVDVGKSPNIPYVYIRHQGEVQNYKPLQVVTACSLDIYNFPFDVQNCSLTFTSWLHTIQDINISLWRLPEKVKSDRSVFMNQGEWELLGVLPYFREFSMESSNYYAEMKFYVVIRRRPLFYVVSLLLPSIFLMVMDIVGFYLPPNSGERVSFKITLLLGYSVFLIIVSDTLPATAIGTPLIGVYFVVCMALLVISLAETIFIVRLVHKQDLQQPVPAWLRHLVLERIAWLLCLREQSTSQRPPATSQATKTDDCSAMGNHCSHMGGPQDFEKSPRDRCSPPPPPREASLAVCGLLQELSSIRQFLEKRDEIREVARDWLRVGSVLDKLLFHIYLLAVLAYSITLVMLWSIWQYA
# Note: assay procedure not described here.
Compound,AC50 [1] [µM],AC50 (Cannabinoid receptor 1) [µM],AC50 (Endothelin-1 receptor) [µM],AC50 [2] [µM],AC50 [3] [µM],AC50 [4] [µM]
CCCN(CCc1cccs1)[C@H]1CCc2c(O)cccc2C1 [ROTIGOTINE],> 30,20,> 30,5.1,29,> 30
CCc1oc2ccccc2c1C(=O)c1cc(Br)c(O)c(Br)c1 [BENZBROMARONE],> 30,> 30,> 30,> 30,> 30,> 30
Clc1cccc(Cl)c1N=C1NCCN1 [CLONIDINE],> 30,> 30,> 30,> 10,> 30,> 30
NC(=O)c1ncn([C@@H]2O[C@H](CO)[C@@H](O)[C@H]2O)n1 [RIBAVIRIN],> 30,> 30,,> 10,> 10,> 30
CC[C@@H](CO)NC(=O)[C@@H]1C=C2c3cccc4[nH]cc(c34)C[C@H]2N(C)C1 [METHYLERGONOVINE],0.12,> 30,> 30,> 30,> 30,> 30
CC(C)N(CCCCOCC(=O)NS(C)(=O)=O)c1cnc(-c2ccccc2)c(-c2ccccc2)n1 [SELEXIPAG],> 30,28,> 30,> 30,> 30,> 30
[H]/N=C(\N/C(=N/[H])NCCCCCCNC(=N)NC(=N)Nc1ccc(Cl)cc1)Nc1ccc(Cl)cc1 [CHLORHEXIDINE],5.4,,,0.409,1,5.9
CC(C)C[C@H](CN)CC(=O)O [PREGABALIN],> 30,> 30,> 30,> 30,> 30,> 30
CC1(C)O[C@@H]2[C@@H](CO[C@@]3(COS(N)(=O)=O)OC(C)(C)O[C@@H]23)O1 [TOPIRAMATE],> 30,> 30,> 30,> 10,> 30,> 10
CNCCC=C1c2ccccc2CCc2ccccc21 [NORTRIPTYLINE],,,> 30,,> 30,> 30
Cc1cnc(NC(=O)C2=C(O)c3ccccc3S(=O)(=O)N2C)s1 [MELOXICAM],> 10,> 30,13.4,> 10,> 30,> 10
O=C1CN2Cc3c(ccc(Cl)c3Cl)N=C2N1 [ANAGRELIDE],> 30,,,> 30,> 30,> 30
CC[C@H]1OC(=O)[C@H](C)[C@@H](O[C@H]2C[C@@](C)(OC)[C@@H](O)[C@H](C)O2)[C@H](C)[C@@H](O[C@@H]2O[C@H](C)C[C@H](N(C)C)[C@H]2O)[C@](C)(O)C[C@@H](C)/C(=N\OCOCCOC)[C@H](C)[C@@H](O)[C@]1(C)O [ROXITHROMYCIN],> 30,> 30,> 30,> 30,> 30,> 30
CC(=O)S[C@@H]1CC2=CC(=O)CC[C@]2(C)[C@H]2CC[C@@]3(C)[C@@H](CC[C@@]34CCC(=O)O4)[C@H]12 [SPIRONOLACTONE],> 30,> 30,> 30,> 30,> 30,> 30
COC(=O)[C@H](c1ccccc1Cl)N1CCc2sccc2C1 [CLOPIDOGREL],> 30,> 30,> 30,> 30,> 30,> 30
Nc1nc(O)c2ncn(COC(CO)CO)c2n1 [GANCICLOVIR],> 30,> 30,> 30,> 30,> 30,> 30
C=C(C)[C@@H]1CCC(C)=C[C@H]1c1c(O)cc(CCCCC)cc1O [CANNABIDIOL],> 30,,> 30,17.3,> 30,> 30

Compound,AC50 [1] [µM],AC50 (Cannabinoid receptor 1) [µM],AC50 (Endothelin-1 receptor) [µM],AC50 [2] [µM],AC50 [3] [µM],AC50 [4] [µM]
Cc1cc(CC(=O)O)n(C)c1C(=O)c1ccc(Cl)cc1 [ZOMEPIRAC],> 30,> 10,> 30,> 30,> 30,> 30
CNCC[C@H](Oc1cccc2ccccc12)c1cccs1 [DULOXETINE],13,> 30,,,14.7,14
CN1CCN(CCCN2c3ccccc3Sc3ccc(S(=O)(=O)N(C)C)cc32)CC1 [THIOPROPERAZINE],6.14,> 30,,,,> 30
CC(=N)N1CC[C@H](SC2=C(C(=O)O)N3C(=O)[C@H]([C@@H](C)O)[C@H]3C2)C1,> 300,> 300,> 300,> 300,> 300,> 300
CCC(=O)O[C@@H](O[P@](=O)(CCCCc1ccccc1)CC(=O)N1C[C@H](C2CCCCC2)C[C@H]1C(=O)O)C(C)C [FOSINOPRIL],> 30,> 30,,,,> 30
CC(=O)Oc1ccccc1C(=O)Nc1ncc([N+](=O)[O-])s1 [NITAZOXANIDE],0.45,> 30,12,5.1,15,3.1
CCOc1cc(CC(=O)N[C@@H](CC(C)C)c2ccccc2N2CCCCC2)ccc1C(=O)O [REPAGLINIDE],> 30,> 30,> 30,> 30,> 30,> 30
CN1C[C@H](C(=O)N[C@]2(C)O[C@@]3(O)[C@@H]4CCCN4C(=O)[C@H](Cc4ccccc4)N3C2=O)C[C@@H]2c3cccc4[nH]cc(c34)C[C@H]21 [DIHYDROERGOTAMINE],0.5,> 30,> 30,> 30,4.39,> 30
CNCC[C@@H](Oc1ccccc1C)c1ccccc1 [ATOMOXETINE],,> 30,> 30,,> 30,
CCCN(CCC)CCc1cccc2c1CC(=O)N2 [ROPINIROLE],> 30,> 30,> 30,> 30,> 30,> 30
Cn1c(=O)c2[nH]cnc2n(C)c1=O [THEOPHYLLINE],> 30,> 30,> 30,> 30,> 30,> 30
O=C1NC(=O)C(c2ccccc2)(c2ccccc2)N1 [PHENYTOIN],> 30,> 30,> 30,> 30,> 30,> 30
CC(/C=C1\SC(=S)N(CC(=O)O)C1=O)=C\c1ccccc1,6.4,> 30,> 30,15,> 30,13
CC1(C)S[C@@H]2[C@H](NC(=O)[C@H](N)c3ccc(O)cc3)C(=O)N2[C@H]1C(=O)O [AMOXICILLIN],> 30,,> 30,> 30,> 30,> 30
CO/N=C(\C(=O)N[C@@H]1C(=O)N2C(C(=O)O)=C(COC(N)=O)CS[C@H]12)c1ccco1 [CEFUROXIME],> 30,> 30,> 30,> 30,> 30,> 30
COc1ccnc(C[S+]([O-])c2nc3ccc(OC(F)F)cc3[nH]2)c1OC (stereo unspecified) [PANTOPRAZOLE],> 30,> 30,> 30,> 10,> 30,> 30
CC(=O)/N=c1/sc(S(N)(=O)=O)nn1C [METHAZOLAMIDE],> 30,,,> 10,> 10,> 30
